Source: patent publication US8008488B2 (Abbott GmbH & Co. KG, priority 2003, dated 2011)

What was measured:
[1] = biological target: T1, human dopamine D3 receptors (Homo sapiens, UniProt P35462); assay: Dopamine D3 receptor binding, displacement of [125I]-iodosulpride; conditions: membranes from HEK-293 cells with stably expressed human D3 receptors, 0.1 nM [125I]-iodosulpride
T1 construct: expressed in transfected cells
Protocol: (§1) The substance to be tested was dissolved either in methanol/Chremophor® (BASF-AG) or in dimethyl sulfoxide and then diluted with water to the desired concentration.
(§2) Triplicate mixtures were carried out.
The incubation buffer contained 50 mM Tris, 120 mM NaCl, 5 mM KCl, 2 mM CaCl2, 2 mM MgCl2 and 0.1% bovine serum albumin, 10 μM quinolone, 0.1% ascorbic acid (prepared fresh each day). The buffer was adjusted to pH 7.4 with HCl.
(§3) Measurement and Evaluation:
(§4) After incubation at 25° C. for 60 minutes, the mixtures were filtered under vacuum through Whatman GF/B glass fiber filters using a cell harvester. The filters were transferred by a filter transfer system into scintillation vials. After addition of 4 ml of Ultima Gold® (Packard), the samples were shaken for one hour and then the radioactivity was calculated in a beta counter (Packard, Tricarb 2000 or 2200CA). The cp values were converted into dpm by means of a standard quench series with the aid of the instrument's own program.
(§5) Evaluation of the inhibition plots took place by iterative nonlinear regression analysis using the Statistical Analysis System (SAS) similar to the “LIGAND” program described by Munson and Rodbard.

[2] = biological target: T2, human dopamine D2L receptors (long isoform) (Homo sapiens, UniProt P14416); assay: Dopamine D2L receptor binding, displacement of [125I]-iodospiperone; conditions: *Ki(D2L)/Ki(D3), HEK-293 membranes, 0.01 nM [125I]-iodospiperone
T2 construct: expressed in transfected cells
T2 sequence (P14416 whole entry, canonical isoform): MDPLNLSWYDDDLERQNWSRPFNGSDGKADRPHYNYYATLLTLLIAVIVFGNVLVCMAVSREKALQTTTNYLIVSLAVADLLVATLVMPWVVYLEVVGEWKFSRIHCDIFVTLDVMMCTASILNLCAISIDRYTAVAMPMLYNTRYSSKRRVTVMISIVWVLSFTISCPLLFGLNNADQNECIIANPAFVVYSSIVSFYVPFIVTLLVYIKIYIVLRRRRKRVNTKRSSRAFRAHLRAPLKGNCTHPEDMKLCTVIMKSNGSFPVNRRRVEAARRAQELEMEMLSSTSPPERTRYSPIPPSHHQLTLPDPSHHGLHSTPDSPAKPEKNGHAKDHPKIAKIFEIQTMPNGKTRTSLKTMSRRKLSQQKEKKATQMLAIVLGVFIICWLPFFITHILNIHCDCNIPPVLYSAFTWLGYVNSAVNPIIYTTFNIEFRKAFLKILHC
Protocol: as §1, §2
The incubation buffer contained 50 mM Tris, 120 mM NaCl, 5 mM KCl, 2 mM CaCl2, 2 mM MgCl2 and 0.1% bovine serum albumin. The buffer was adjusted to pH 7.4 with HCl.
as §3, §4, §5

T1 sequence (P35462 whole entry): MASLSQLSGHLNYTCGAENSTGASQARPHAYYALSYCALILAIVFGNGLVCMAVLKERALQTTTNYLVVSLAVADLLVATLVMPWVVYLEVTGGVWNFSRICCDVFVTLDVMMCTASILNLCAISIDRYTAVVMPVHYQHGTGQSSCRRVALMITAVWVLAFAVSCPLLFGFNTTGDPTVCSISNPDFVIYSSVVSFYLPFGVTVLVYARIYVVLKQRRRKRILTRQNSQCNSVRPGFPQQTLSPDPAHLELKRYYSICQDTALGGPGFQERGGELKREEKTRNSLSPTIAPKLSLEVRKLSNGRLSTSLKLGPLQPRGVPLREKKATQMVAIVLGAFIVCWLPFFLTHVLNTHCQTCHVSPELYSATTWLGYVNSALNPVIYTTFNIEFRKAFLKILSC

Row | Ki [1] [nM] | Selectivity D3 vs. D2L* [2] | Compound
1 | 0.31 | 54 | 1-{4-[4-(2,3-Dichlorophenyl)piperazin-1-yl]butyl}-5-methyl-1H-pyrimidine-2,4-dione [Example 82]
2 | 1.8 | 54 | 1-{4-[4-(2-tert-Butyl-6-propylpyrimidin-4-yl)piperazin-1-yl]butyl}-4-methyl-1H-pyrimidin-2-one [Example 69]
3 | 2.97 | 65 | CCCc1cc(N2CCN(C(C)CCCn3cc(C)c(=O)[nH]c3=O)CC2)nc(C(C)(C)C)n1 (single isomer, unassigned; (+)) [Example 63, (+)-1-{4-[4-(2-tert-Butyl-6-propylpyrimidin-4-yl)piperazin-1-yl]pentyl}-5-methyl-1H-pyrimidine-2,4-dione]
4 | 2.57 | 57 | Cc1cn(CC(C)CCN2CCN(c3cc(C(F)(F)F)nc(C(C)(C)C)n3)CC2)c(=O)[nH]c1=O (single isomer, unassigned; (-)) [Example 64, (−)-1-{4-[4-(2-tert-Butyl-6-trifluoromethylpyrimidin-4-yl)piperazin-1-yl]-2-methylbutyl}-5-methyl-1H-pyrimidine-2,4-dione]
5 | 3.03 | 103 | CCCc1cc(N2CCN(C(C)CCCn3cc(C)c(=O)[nH]c3=O)CC2)nc(C(C)(C)C)n1 (single isomer, unassigned; (-)) [Example 76, (−)-1-{4-[4-(2-tert-Butyl-6-propylpyrimidin-4-yl)piperazin-1-yl]pentyl}-5-methyl-1H-pyrimidine-2,4-dione]
6 | 3.23 | 88 | Cc1cn(CCCCN2CCN(c3cc(C(F)(F)F)nc(C(C)(C)C)n3)CC2)c(=O)nc1S [Example 2, 1-(4-{4-[2-tert-Butyl-6-(trifluoromethyl)pyrimidin-4-yl]piperazin-1-yl}butyl)-4-mercapto-5-methylpyrimidin-2(1H)-one]
7 | 1.3 | 246 | Cc1cn(CCCCN2CCN(c3cc(C(F)(F)F)nc(C(C)(C)C)n3)CC2)c(=O)nc1O.Cl [Example 5, 1-[2-tert-Butyl-6-(trifluoromethyl)pyrimidin-4-yl]-4-[4-(4-hydroxy-5-methyl-2-oxopyrimidin-1 (2H)-yl)butyl]piperazin-4-ium chloride]
8 | 31.2 | 35 | Cc1cnc(=O)n(CCCCN2CCN(c3cc(C(F)(F)F)nc(C(C)(C)C)n3)CC2)c1 [Example 6, 1-(4-{4-[2-tert-Butyl-6-(trifluoromethyl)pyrimidin-4-yl]piperazin-1-yl}butyl)-5-methylpyrimidin-2(1H)-one]
9 | 4.4 | 71 | Cc1ccn(CCCCN2CCN(c3cc(C(F)(F)F)nc(C(C)(C)C)n3)CC2)c(=O)n1 [Example 8, 1-(4-{4-[2-tert-Butyl-6-(trifluoromethyl)pyrimidin-4-yl]piperazin-1-yl}butyl)-4-methylpyrimidin-2(1H)-one]
10 | 0.74 | 53 | Cc1cn(CCCCN2CCN(c3cc(C(C)(C)C)nc(C(C)(C)C)n3)CC2)c(=O)nc1O [Example 9, 1-{4-[4-(2,6-ditert-Butylpyrimidin-4-yl)piperazin-1-yl]butyl}-4-hydroxy-5-methylpyrimidin-2(1H)-one]
11 | 1.75 | 97 | CCCc1cc(N2CCN(CCCCn3cc(C)c(O)nc3=O)CC2)nc(C(C)(C)C)n1 [Example 10, 1-{4-[4-(2-tert-Butyl-6-propylpyrimidin-4-yl)piperazin-1-yl]butyl}-4-hydroxy-5-methylpyrimidin-2(1H)-one]
12 | 3.14 | 65 | Cc1cn(CCCCN2CCN(c3cc(C(F)(F)F)nc(C(C)(C)C)n3)CC2)c(=O)nc1NCc1ccccc1 [Example 11, 4-(Benzylamino)-1-(4-{4-[2-tert-butyl-6-(trifluoromethyl)pyrimidin-4-yl]piperazin-1-yl}butyl)-5-methylpyrimidin-2(1H)-one]
13 | 3.44 | 63 | Cc1cn(CCCCN2CCN(c3cc(C(F)(F)F)nc(C(C)(C)C)n3)CC2)c(=O)nc1N(C)C.Cl [Example 12, 1-[2-tert-Butyl-6-(trifluoromethyl)pyrimidin-4-yl]-4-{4-[4-(dimethylamino)-5-methyl-2-oxopyrimidin-1 (2H)-yl]butyl}piperazin-4-ium chloride]
14 | 1.88 | 104 | CC(C)(C)c1nc(N2CCN(CCCCn3ccc(O)nc3=O)CC2)cc(C(F)(F)F)n1 [Example 13]
15 | 2.62 | 82 | CC(C)(C)c1ccn(CCCCN2CCN(c3cc(C(F)(F)F)nc(C(C)(C)C)n3)CC2)c(=O)n1 [Example 14, 4-tert-Butyl-1-(4-{4-[2-tert-butyl-6-(trifluoromethyl)pyrimidin-4-yl]piperazin-1-yl}butyl)pyrimidin-2(1H)-one]
16 | 14.5 | 64 | CC(C)(C)c1nc(N2CCN(CCCCn3ccc(C(F)(F)F)nc3=O)CC2)cc(C(F)(F)F)n1.Cl [Example 15, 1-[2-tert-Butyl-6-(trifluoromethyl)pyrimidin-4-yl]-4-{4-[2-oxo-4-(trifluoromethyl)pyrimidin-1 (2H)-yl]butyl}piperazin-4-ium chloride]
17 | 2.99 | 201 | CC(C)(C)c1nc(N2CCN(CCCCn3cc(F)c(=O)[nH]c3=O)CC2)cc(C(F)(F)F)n1.Cl [Example 16, 1-[2-tert-Butyl-6-(trifluoromethyl)pyrimidin-4-yl]-4-[4-(5-fluoro-2,4-dioxo-3,4-dihydro-pyrimidin-1 (2H)-yl)butyl]piperazin-4-ium chloride]
18 | 0.71 | 134 | Cc1cn(CCCCN2CCN(c3cc(C4CC4)nc(C(C)(C)C)n3)CC2)c(=O)nc1O [Example 17, 1-{4-[4-(2-tert-Butyl-6-cyclopropylpyrimidin-4-yl)piperazin-1-yl]butyl}-4-hydroxy-5-methylpyrimidin-2(1H)-one]
19 | 4.78 | 99 | CC(C)(C)c1nc(N2CCN(CCCCn3cc(C#N)c(=O)[nH]c3=O)CC2)cc(C(F)(F)F)n1 [Example 18, 1-(4-{4-[2-tert-Butyl-6-(trifluoromethyl)pyrimidin-4-yl]piperazin-1-yl}butyl)-2,4-dioxo-1,2,3,4-tetrahydropyrimidine-5-carbonitrile]
20 | 1.44 | 96 | CC(C)(C)c1ccn(CCCCN2CCN(c3cc(C4CC4)nc(C(C)(C)C)n3)CC2)c(=O)n1 [Example 19, 4-tert-Butyl-1-{4-[4-(2-tert-butyl-6-cyclopropylpyrimidin-4-yl)piperazin-1-yl]butyl}pyrimidin-2(1H)-one]
21 | – | 34 | Cc1cn(CCCCN2CCN(c3cc(C(F)(F)F)nc(C(C)(C)C)n3)CC2)c(=O)n(C)c1=O [Example 25, 1-(4-{4-[2-tert-Butyl-6-(trifluoromethyl)pyrimidin-4-yl]piperazin-1-yl}butyl)-3,5-dimethylpyrimidine-2,4(1H,3H)-dione]
22 | – | 52 | Cn1c(=O)ccn(CCCCN2CCN(c3cc(C(F)(F)F)nc(C(C)(C)C)n3)CC2)c1=O [Example 27, 1-(4-{4-[2-tert-Butyl-6-(trifluoromethyl)pyrimidin-4-yl]piperazin-1-yl}butyl)-3-methylpyrimidine-2,4(1H,3H)-dione]
